Experimental data as given in article PMC6273235, “Phenolic Constituents of Medicinal Plants with Activity against Trypanosoma brucei” (Molecules, 2016).
Like-named read-outs stand apart in the source and are kept apart here.

Tests used:
[1] = tested on: T. b. brucei strain 427 (bloodstream forms); experiment: Anti-trypanosomal activity on T. brucei (resazurin growth inhibition, 3 days); format: cell-based, Trypanosoma brucei
Excerpt: To identify inhibitors of T. brucei growth, we conducted a screening of a proprietary library consisting of 440 purified natural products isolated from medicinal plants at the CNU laboratories. […] Nevertheless, since, according to the 5th rule, natural products may also represent exceptions from the other rules, all compounds were submitted to antiparasitic screening performed at a single concentration of 5 ppm (µg/mL) of each purified natural product.
T. b. brucei strain 427 (bloodstream forms) were cultivated at 37 °C with 5% CO2 atmosphere in HMI-9 medium supplemented with 10% FBS. […] After the incubation, the parasites were exposed to 120 µM of resazurin sodium salt for 5 h. Then, the parasites were fixed with 4% PFA and the assay plates were read by Victor 3 (PerkinElmer, Waltham, MA, USA) at 530 nmEx/590 nmEm. Pentamidine was used as a reference drug and DMSO 0.5% was used as a drug-negative control.

[2] = Cytotoxicity assay (resazurin, 3 days), HEK293T; format: cell-based, human; settings: human
Experimental: (§1) HEK293T and HepG2 cells were cultured at 37 °C with 5% CO2 in Dulbecco’s modified eagle medium containing 10% FBS. Both cell lines were plated individually in 384 well plates (4000 cells per well) and the natural compounds (two fold 10 points serial dilution starting from 5 ppm) were added for 3 days of incubation.

HEK293T cells = experiment: Cytotoxicity assay (resazurin, 3 days), HEK293T; format: cell-based, human; settings: for s.i (selectivity index) HEK239T: CC50 (HEK293T)/IC50 (T. brucei)
Experimental: as §1

[3] = Cytotoxicity assay (resazurin, 3 days), HepG2; format: cell-based, human; settings: human
Experimental: as §1

HepG2 cells = experiment: Cytotoxicity assay (resazurin, 3 days), HepG2; format: cell-based, human; settings: for s.i (selectivity index) HepG2: CC50 (HepG2)/IC50 (T. brucei)
Experimental: as §1

Trypanosoma = tested on: Trypanosoma; parameters: method as in PMID 16569852, PMID 20004045; settings: cited from earlier work
[4] = Trypanosoma brucei, 72 h, T. b. brucei strain 427 bloodstream forms, 3 days, mean ± SD, read-out: T. brucei IC50
[5] = Trypanosoma brucei, -log IC50 [M], experimental, read-out: pIC50 Tbr(exp) (converted)
[6] = T. b. brucei strain 427 bloodstream forms, 3 days, mean ± SD, read-out: T. brucei IC50
[7] = HEK293T cells, 3 days, > = highest concentration tested (5 ppm), read-out: Cytotoxicity CC50 Values HEK239T

Molecule | IC50 [1, 4] | IC50 [1, 5] | CC50 at 3 days [2] | s.i (selectivity index) HEK239T (HEK293T cells) | CC50 at 3 days [3] | s.i (selectivity index) HepG2 (HepG2 cells) | anti-trypanosomal activity previously reported (Trypanosoma) | IC50 [1, 6] | IC50 ([1]; Trypanosoma brucei, 72 h, read-out: T. brucei IC50) | IC50 ([1]; Trypanosoma brucei, read-out: pIC50 Tbr(exp) (converted)) | CC50 at 3 days [2, 7] | CC50 at 3 days ([3]; HepG2 cells, 3 days, > = highest concentration tested (5 ppm), read-out: Cytotoxicity CC50 Values HepG2) | pIC50 Tbr(exp) ([1]; -log IC50 [M], experimental) | CC50 (HEK293T cells; [7]) | CC50 (HepG2 cells; HepG2 cells, 3 days, > = highest concentration tested (5 ppm))
O=C(/C=C/c1ccc(O)cc1)CC(=O)/C=C/c1ccc(O)cc1 [Compound 1, bisdemethoxycurcumin] | 9.84e-06 ± 8.4e-07 M | 9.84e-06 M | > 32.5 µM | >3.30 | > 32.5 µM | >3.30 | anti-trypanosomal activity |  |  |  |  |  |  |  | 
CC(C)=CCc1cc(C(=O)/C=C/c2ccc(O)c(O)c2)c(O)cc1O [Compound 4, broussochalcone A] |  | 2.17e-06 M | > 28.8 µM | >13.28 | > 29.2 µM |  |  |  |  |  |  |  |  |  | 
COc1cc(O)ccc1C(=O)/C=C/c1ccc(O)cc1 [Compound 5, 3-deoxysappanchalcone] | > 1e-05 M | 1.04e-05 M | > 30.2 µM | >2.91 | > 37.1 µM | >3.58 |  | 1.04e-05 ± 3.36e-06 M |  |  |  |  |  |  | 
CC(C)=CCC/C(C)=C/Cc1c(O)ccc(C(=O)/C=C/c2ccc(O)cc2)c1O [Compound 6, xanthoangelol] | 7.42e-06 ± 1.12e-06 M | 7.41e-06 M | > 25.4 µM | >3.43 | > 25.4 µM | >3.43 |  |  |  |  |  |  |  |  | 
COc1cc(CC/C=C/C(=O)CCc2ccccc2)ccc1O [Compound 7, 7-(4″-hydroxy-3″-methoxyphenyl)-1-phenylhept-4-en-3-one] |  | 2.48e-06 M | > 32.4 µM | >13.05 | > 32.4 µM | >13.05 |  |  |  |  |  |  |  |  | 
COc1cc(C=CC=O)ccc1O [Compound 8, 4-hydroxy-3-methoxycinnamaldehyde] | > 1e-05 M | 1.64e-05 M | > 48.1 µM | >2.93 | > 57 µM | >3.47 |  | 1.64e-05 ± 2.78e-06 M |  |  |  |  |  |  | 
C=CCc1ccc(Oc2cc(/C=C/C=O)cc(O)c2O)cc1 [Compound 9, obovatal] | 9.89e-06 ± 5.1e-07 M | 9.89e-06 M | > 33.8 µM | >3.42 | > 33.8 µM | >3.42 |  |  |  |  |  |  |  |  | 
C=CCc1ccc(O)c(-c2ccc(O)c(CC=C)c2)c1 [Compound 10, honokiol] | 8.76e-06 ± 3.8e-07 M | 8.77e-06 M | > 37.6 µM | >4.29 | > 37.6 µM | >4.29 |  |  |  |  |  |  |  |  | 
C=C[C@H](OC(C)=O)c1ccc(OC(C)=O)cc1 [Compound 11, 1′S-1′-acetoxychavicol acetate] | < 5e-06 M | 4.7e-06 M | > 23.2 µM | >4.94 | > 30 µM | >6.38 |  | 4.7e-06 ± 1.53e-06 M |  |  |  |  |  |  | 
COc1ccc([C@H](O)[C@@H](C)Oc2ccc([C@H]3O[C@H](c4ccc5c(c4)OCO5)[C@H](C)[C@H]3C)cc2OC)cc1OC [Compound 12, saucerneol D] | 5.61e-06 ± 9e-08 M | 5.61e-06 M | > 16.2 µM | >2.89 | > 18.6 µM | >3.32 |  |  |  |  |  |  |  |  | 
COc1ccc([C@@H](O)[C@@H](C)Oc2ccc([C@H]3O[C@H](c4ccc(O[C@H](C)[C@H](O)c5ccc(OC)c(OC)c5)c(OC)c4)[C@H](C)[C@H]3C)cc2OC)cc1OC [Compound 13, manassantin A] |  |  |  |  |  |  |  |  | 5.43e-06 ± 2.6e-07 M | 5.43e-06 M | > 11.8 µM | > 13.7 µM |  |  | 
COc1ccc([C@@H](O)[C@@H](C)Oc2ccc([C@H]3O[C@H](c4ccc(O[C@H](C)[C@H](O)c5ccc6c(c5)OCO6)c(OC)c4)[C@H](C)[C@H]3C)cc2OC)cc1OC [Compound 14, manassantin B] | < 5e-06 M | 3.54e-06 M | > 11 µM | >3.12 | > 13.9 µM | >3.93 |  | 3.54e-06 ± 4.9e-07 M |  |  |  |  |  |  | 
C=C(C)[C@H](CC=C(C)C)Cc1c(O)cc(O)c2c1O[C@H](c1ccc(O)cc1O)CC2=O [Compound 15, kushenol F] |  | 1.37e-06 M | > 23.8 µM | >17.34 | > 23.8 µM | >17.34 |  |  |  |  |  |  |  |  | 
O=c1cc(-c2ccc(O)cc2)oc2cc(O)cc(O)c12 [Compound 16, apigenin] | > 1e-05 M | 1.1e-05 M | > 37 µM | >3.38 | > 37 µM | >3.38 | anti-trypanosomal activity | 1.1e-05 ± 2.64e-06 M |  |  |  |  |  |  | 
COc1ccc(-c2cc(=O)c3c(O)c(OC)c(O)cc3o2)cc1OC [Compound 17, eupatilin] | 8.14e-06 ± 1.37e-06 M | 8.15e-06 M | > 29.1 µM | >3.58 | > 29.1 µM | >3.58 |  |  |  |  |  |  |  |  | 
CC(C)=CCc1c(-c2ccc(O)cc2O)oc2c3c(cc(O)c2c1=O)OC(C)(C)C=C3 [Compound 18, morusin] | < 5e-06 M | 3.4e-06 M | > 23.7 µM | >6.98 | > 23.7 µM | >6.98 |  | 3.4e-06 ± 1.5e-07 M |  |  |  |  |  |  | 
O=C1c2ccc(O)cc2OC[C@H]1Cc1ccc(O)c(O)c1 [Compound 19, 3-deoxysappanone B] | 5.8e-06 ± 7e-08 M | 5.79e-06 M | > 35 µM | >6.04 | > 35 µM | >6.04 |  |  |  |  |  |  |  |  | 
CC(C)=CCc1c(O)c(CC=C(C)C)c2occ(-c3ccc(O)c(O)c3)c(=O)c2c1O [Compound 20, 6,8-diprenylorobol] |  | 5.2e-07 M | > 24.1 µM | >46.34 | > 24.1 µM | >46.34 |  |  |  |  |  |  |  |  | 
O=c1c(-c2ccc(O)cc2)coc2cc(O[C@@H]3O[C@H](CO)[C@@H](O)[C@H](O)[C@H]3O)cc(O)c12 [Compound 21, genistin] | < 5e-06 M | 3.31e-06 M | > 23.1 µM | >6.99 | > 23.1 µM | >6.99 |  | 3.31e-06 ± 7.5e-07 M |  |  |  |  |  |  | 
O=c1c(-c2ccc(O[C@@H]3O[C@H](CO)[C@@H](O)[C@H](O)[C@H]3O)cc2)coc2cc(O)cc(O)c12 [Compound 22, sophoricoside] | 6.5e-06 ± 5.2e-07 M | 6.5e-06 M | > 23.1 µM | >3.56 | > 23.1 µM | >3.56 |  |  |  |  |  |  |  |  | 
N=C(N)c1ccc(OCCCCCOc2ccc(C(=N)N)cc2)cc1 [Pentamidine, reference compound] | 4e-09 ± 3e-09 M |  |  | <26.7 |  |  |  |  |  |  |  |  |  |  | 
demethoxycurcumin [Compound 2] |  |  |  |  |  |  | anti-trypanosomal activity | 7.19e-06 ± 1.02e-06 M |  |  |  |  | 5.143 | > 21.4 µM | > 29.6 µM
